Reference: patent EP0603240B1, “SAFENING HERBICIDAL PYRAZOLYLSULFONYLUREAS” (priority 1991, dated 1993)

What was measured:
Format in all cases: in vivo
[1] = system: velvetleaf (Abutilon theophrasti); assay: Example 4, Procedure I: Antidote Nos. 15 and 16 against Herbicide No. 1; details: no antidote, average of two replicates
Experimental: (§1) Containers were filled and compacted with a fumigated silt loam top soil to a depth of about 1.3 cm from the top of the container. A first container was designated as an untreated control, a second container was designated as a herbicide control, and a third container was designated as a herbicide + antidote test container. Each of the containers was seeded with a crop species. A measured amount of herbicide dispersed or dissolved in acetone was applied to a measured quantity of soil. To this same quantity of soil treated with herbicide, there was added a measured amount of antidote dispersed or dissolved in acetone. The quantity of soil treated with the herbicide and antidote was thoroughly mixed to incorporate the herbicide and antidote in the soil uniformly. The seed bed in the third container of soil was covered with the soil treated with the herbicide and antidote and the container was leveled. For each test series, the seed beds of the first and second containers were likewise covered by soil layers. the cover layer of the first container was not treated with herbicide or antidote.
(§2) The containers were then placed on a bench in a greenhouse and sub-irrigated as required for the duration of the test. […] Plant response is measured in terms of percent injury. Antidote efficacy is indicated as the difference in plant injury by the herbicide(s) without the antidote and with the antidote.
In the series of greenhouse tests described below, for routine screening purposes the herbicide/antidote compositions were tested in crop/weed combinations involving corn as the crop and either or both of the weeds barnyardgrass (Echinochloa crusgalli), a monocotyledonous weed, and velvetleaf (Abutilon theophrasti), a dicotyledonous weed. In the tables below, these weeds are indicated by the symbols "BYG" and "VL", respectively.
This example describes tests with Antidote Nos. 15 and 16 to safen Herbicide No. 1 according to Procedure I using corn and the weeds barnyardgrass and velvetleaf as the test plants.

[2] = system: corn; assay: Example 26, field trials, preemergence surface application (PRE): corn growth reduction
Experimental: (§3) In order to better understand and to confirm the results of greenhouse tests with herbicidal compositions comprising representative compounds according to Formula I and an antidote with and without a co-herbicide, a large number of field trials were conducted. This example provides a summary of those field trials.
(§4) The primary purpose of the field trials summarized herein was to ascertain the amount of corn injury caused by a compound according to Formula I. viz. Herbicide No. 1, with and without a co-herbicide of the α-chloroacetanilide class, viz., Herbicide Nos. 6 and 7, and the extent that any corn injury could be safened by a dichloroacetamide antidotal compound, viz., Antidote No. 15.
(§5) Corn injury is generally expressed, in broad terms, in stand reduction, growth reduction, malformed plants and other more specific effects. For purposes of the summary here, the results of a plurality of field trials are expressed in terms of growth reduction (GR), i.e., a significant reduction in plant height of the corn stand. A common criteria for commercially-acceptable corn injury is an amount equal to or less than 10% malformed plants or stand reduction and for present reporting purposes, no greater than about 15% growth reduction. The corn injury/safening described for these field trials refers to commercially-unacceptable to commercially-acceptable performance.
(§6) In the field trials from a wide distribution of trial locations, soil types (all having in excess of 2% organic matter), climatic effects, etc., the test chemicals were applied as tank mixes in various modes of application, i.e., pre-plant incorporation (PPI) and preemergence surface application (PRE). Test plots were small plots with three replications in a randomized complete block design. Observations were made and recorded in a period of from 31-50 days after treatment.

[3] = system: corn; assay: Example 26, field trials, pre-plant incorporation (PPI): corn growth reduction; details: for corn growth reduction (GR) / maximum injury level (GR): PPI
Experimental: as §3, §4, §5, §6

[4] = system: corn; assay: Example 20, Procedure II: Herbicide No. 1 + EPTC or ERADICANE EXTRA with Antidote Nos. 5 and 15
Experimental: as §1, §2
This procedure is the same as Procedure I, but modified in the manner that after incorporation of the chemicals (herbicide and antidote) the containers with the covered seedbed were treated with an initial overhead irrigation equivalent to 0.6 cm rainfall, then subsequently sub-irrigated as required on greenhouse benches.
This example describes experiments designed to test two generally efficacious antidotal compounds, i.e., Antidote Nos. 5 and 15, against the herbicidal action of the sulfonylurea compound, Herbicide No. 1, and the commercial herbicides EPTC (Herbicide No. 4) and ERADICANE® EXTRA (EPTC + R-29148, Antidote No. 5). Procedure II above was used in conducting these experiments. Formulations of EPTC and ERADICANE EXTRA were applied onto soil cover layers (to be applied over seed beds), followed by sequential pipetting of Herbicide No. 1 and Antidote No. 15. The soil was mixed to homogeneity and spread over the seed beds followed by 0.6 cm of overhead irrigation.

For `COC(=O)c1c(Cl)nn(C)c1S(=O)(=O)NC(=O)Nc1nc(OC)cc(OC)n1` [Herbicide No. 1], the “% Injury VL” value ([1]; Herb. No. 1 4.48 kg/ha) was 90%, the “% Injury VL” value ([1]; Herb. No. 1 6.72 kg/ha) was 90% and the “corn growth reduction (GR)” value ([2]; Herbicide No. 1 0.07 kg/ha + acetochlor, no antidote) was 9.8%. For the same compound, the “corn growth reduction (GR)” value ([2]; Herbicide No. 1 0.14 kg/ha + acetochlor, no antidote) was 13.4%, the “corn growth reduction (GR)” value ([2]; Herbicide No. 1 0.28 kg/ha + acetochlor, no antidote) was 20.3% and the “corn injury level (GR)” value ([3]; Herbicide No. 1 0.14 kg/ha + Herbicide No. 6 (acetochlor), without an antidote) was 14.9%. The “corn injury level (GR)” value ([3]; Herbicide No. 1 0.28 kg/ha + Herbicide No. 6 (acetochlor), without an antidote) was 24.9%, the “corn injury level (GR)” value ([3]; Herbicide No. 1 0.7 kg/ha + Herbicide No. 6 (acetochlor), without an antidote) was 12.5% and the “corn growth reduction (GR)” value ([3]; Herbicide No. 1 0.07 kg/ha + Herbicide No. 7 (alachlor), without an antidote) was 9.75%. For the same compound, the “maximum injury level (GR)” value ([3]; Herbicide No. 1 0.07 kg/ha + Herbicide No. 7, without an antidote) was 48%, the “corn growth reduction (GR)” value ([3]; Herbicide No. 1 0.14 kg/ha + Herbicide No. 7 (alachlor), without an antidote) was 13.25% and the “maximum injury level (GR)” value ([3]; Herbicide No. 1 0.14 kg/ha + Herbicide No. 7, without an antidote) was 48%.
In the case of `CC1(C)OC(c2ccco2)CN1C(=O)C(Cl)Cl` (stereo not drawn) [Antidote No. 15, Oxazolidine, 3-(dichloroacetyl)-5-(2-furanyl)-2,2-dimethyl], the “% Injury Corn” value ([4]; Herbicide No.1 0.56 kg/ha + No. 4 2.24 kg/ha, Antidote No. 15 0.18 kg/ha) is reported as 5%, the “% Injury Corn” value ([4]; Herbicide No.1 0.56 kg/ha + No. 4 4.48 kg/ha, Antidote No. 15 0.35 kg/ha) is reported as 15% and the “% Injury Corn” value ([4]; Herbicide No.1 0.56 kg/ha + No. 4 6.78 kg/ha, Antidote No. 15 0.56 kg/ha) is reported as 0%. The “% Injury Corn” value ([4]; Herbicide No.1 2.24 kg/ha + No. 4 2.24 kg/ha, Antidote No. 15 0.18 kg/ha) was 35%, the “% Injury Corn” value ([4]; Herbicide No.1 2.24 kg/ha + No. 4 4.48 kg/ha, Antidote No. 15 0.35 kg/ha) was 15% and the “% Injury Corn” value ([4]; Herbicide No.1 2.24 kg/ha + No. 4 6.78 kg/ha, Antidote No. 15 0.56 kg/ha) was 15%. For the same compound, the “crop injury, assessment in words” value ([2]; Antidote No. 15 to Herbicide No. 1 ratio increased to 3:1) was “reduced crop injury even further”, the “corn growth reduction (GR)” value ([2]; Herbicide No. 1 0.07 kg/ha + acetochlor + Antidote No. 15) was 8.7% and the “corn growth reduction (GR)” value ([2]; Herbicide No. 1 0.14 kg/ha + acetochlor + Antidote No. 15) was 8.2%. For the same compound, the “corn growth reduction (GR)” value ([2]; Herbicide No. 1 0.28 kg/ha + acetochlor + Antidote No. 15) was 14.5%, the “corn injury level (GR)” value ([3]; Herbicide No. 1 0.14 kg/ha + Herbicide No. 6 + Antidote No. 15) was 10.3% and the “corn injury level (GR)” value ([3]; Herbicide No. 1 0.28 kg/ha + Herbicide No. 6 + Antidote No. 15) was 12.5%. For the same compound, the “corn injury level (GR)” value ([3]; Herbicide No. 1 0.7 kg/ha + Herbicide No. 6 + Antidote No. 15) was 8.6%, the “maximum injury level (GR)” value ([3]; Herbicide No. 1 0.07 kg/ha + Herbicide No. 7 + Antidote No. 15 1:1) was 22% and the “corn growth reduction (GR)” value ([3]; Herbicide No. 1 0.07 kg/ha + Herbicide No. 7 + Antidote No. 15 at 1:1 to Herbicide No. 1) was 7.75%. For the same compound, the “maximum injury level (GR)” value ([3]; Herbicide No. 1 0.14 kg/ha + Herbicide No. 7 + Antidote No. 15 1:1) was 26%, the “corn growth reduction (GR)” value ([3]; Herbicide No. 1 0.14 kg/ha + Herbicide No. 7 + Antidote No. 15 at 1:1 to Herbicide No. 1) was 9.82% and the “safening of corn, assessment in words” value ([3]; field trials (PPI and PRE), under most conditions) was “effectively reduced corn GR injury”.
